Legend:
[1] = molecular target: T1, human adenosine A1 receptors (Homo sapiens, UniProt P30542); experiment: Reporter gene experiments in yeast (agonist activity, β-galactosidase/FDG readout); type: cell-based; parameters: key: equipotent concentration ratio relative to NECA = 1; details: ECR = equipotent concentration ratio relative to NECA = 1; agonist potency, yeast reporter gene assay
T1 construct: expressed in transfected cells
T1 sequence (P30542 1-326): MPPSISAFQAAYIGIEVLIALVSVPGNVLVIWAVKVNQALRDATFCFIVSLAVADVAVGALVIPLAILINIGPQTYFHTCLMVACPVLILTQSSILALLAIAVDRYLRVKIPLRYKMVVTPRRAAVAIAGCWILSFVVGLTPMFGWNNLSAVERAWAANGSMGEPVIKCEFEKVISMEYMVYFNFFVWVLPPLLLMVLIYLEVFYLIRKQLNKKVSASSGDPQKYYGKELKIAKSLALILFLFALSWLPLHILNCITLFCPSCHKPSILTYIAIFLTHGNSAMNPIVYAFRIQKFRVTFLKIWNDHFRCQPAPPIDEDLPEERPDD
Procedure: Reporter Gene Experiments in Yeast
Agonist activity at human adenosine A1 receptors was measured in yeast cell lines expressing the adenosine A1 receptor together with a chimeric G-protein which linked receptor stimulation to the expression of the enzyme β-galactosidase. Cells were plated out in 96-well plates in culture medium to which was added 2 mM 3-AT (3-aminotriazole) to limit basal growth in the absence of agonist stimulation, and FDG (fluorescein di-β-D-galactopyranoside) as substrate for β-galactosidase, which converts FDG to fluorescein. For measurement of potency, agonists were added to the appropriate wells at a concentration range of approximately 10^−10-10^−5M and incubated at 30° C. for 18 hours. At this point the amount of fluorescein generated was measured in a spectrophotometer. From these readings, the concentration-dependence of the stimulation by the agonist can be calculated. One of the agonists tested on each 96-well plate was the standard non-selective agonist, N-ethylcarboxamidoadenosine (NECA), and the potency of all test agonists is expressed relative to that of the NECA standard.
(ECR=equipotent concentration ratio relative to NECA=1)

[2] = molecular target: T2, human adenosine A3 receptors (Homo sapiens, UniProt P0DMS8); experiment: Reporter gene experiments in CHO cells (CRE/SPAP, inhibition of forskolin-stimulated SPAP production); type: cell-based; details: ECR = equipotent concentration ratio relative to NECA = 1; agonist potency, CHO CRE/SPAP reporter gene assay
T2 construct: expressed in transfected cells; host or cells: Chinese hamster ovary (CHO) cells with CRE/SPAP/HYG reporter
T2 sequence (P0DMS8 1-318): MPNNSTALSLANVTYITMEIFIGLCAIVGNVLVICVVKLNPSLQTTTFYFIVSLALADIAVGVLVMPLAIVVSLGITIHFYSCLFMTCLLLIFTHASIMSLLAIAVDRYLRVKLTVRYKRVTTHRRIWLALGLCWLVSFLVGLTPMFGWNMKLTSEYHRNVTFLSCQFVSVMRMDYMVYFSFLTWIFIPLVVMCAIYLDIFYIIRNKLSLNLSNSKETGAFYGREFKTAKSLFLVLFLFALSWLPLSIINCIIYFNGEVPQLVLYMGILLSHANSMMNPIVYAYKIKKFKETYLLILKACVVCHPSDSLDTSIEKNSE
From the text: The compounds useful in the invention are agonists at the adenosine A1 receptor. Preferably they are selective agonists at the adenosine A1 receptor. By selective is meant that the affinity for the A1 receptor is at least 2 times, preferably 5 times and more preferably 10 times greater than the other adenosine receptor subtypes, particularly A3. Agonist selectivity of compounds against other human adenosine receptors can be determined using Chinese hamster ovary (CHO) cells transfected with the gene for the relevant human adenosine receptor following a method based on that of Castanon, K V. and Spevak, W. (1994) Biochem. Biophys. Res. Commun. 198, 626-631. The CHO cells are also transfected with cyclic AMP response elements promoting the gene for secreted placental alkaline phosphatase (SPAP) (Wood, K V. (1995) Cuff. Opinion. Biotechnology, 6, 50-58). The effect of test compounds is determined by their effects on basal levels of cAMP (A2a) or on forskolin-enhanced cAMP (A1 and A3) as reflected by changes in levels of SPAP. EC50 values for compounds are determined as a ratio to that of the non-selective agonist N-ethyl carboxamidoadenosine (NECA). “Adenosine receptors: New opportunities for future drugs” (S. A. Poulsen et al, Bioorg. Med. Chem,. 1998, 6, 619-641) summarises disease conditions that may be treated with adenosine A1 agonists.
Reporter Gene Experiments in CHO cells
Agonist activity at human adenosine A3 receptors was measured in Chinese hamster ovary (CHO) cells containing the CRE/SPAP/HYG (CRE=cyclic AMP response element; HYG=hygromycin resistance; SPAP=secreted placental alkaline phosphatase) reporter gene elements, which upon stimulation of cAMP levels produced SPAP. A cell line was used which was stably transfected with the human adenosine A3 receptor in addition to the above elements. Cells were plated out in 96-well plates in culture medium and incubated at 37° C. for 1 hour. For measurement of potency, agonists were added to the appropriate wells at a concentration range of approximately 10^−10-10^−5M. 15 Min later, cAMP levels were stimulated by addition of a maximal concentration of forskolin. All cells were then incubated for a further 5 hours at 37° C., and cooled to room temperature, after which a substrate for the phosphatase (para-nitrophenol phosphate, pNPP), which is converted by SPAP to a coloured reagent) was then added and the 96-well plates were read in a plate reader. From these readings, the concentration-dependence of the inhibition by the agonist for forskolin-stimulated SPAP production can be calculated. As with the yeast assays, one of the agonists tested on each 96-well plate was the standard non-selective agonist, N-ethylcarboxamidoadenosine (NECA), and the potency of all test agonists is expressed relative to that of the NECA standard.

Row | Molecule | Adenosine A1 receptor ECR* [1] | Adenosine A3 receptor ECR* [2]
1 | C#C[C@H]1O[C@@H](n2cnc3c(Nc4ccc(Cl)cc4C)ncnc32)[C@H](O)[C@@H]1O [Example 39, (2R,3R,4S,5R)-2-{6-[(4-Chloro-2-methylphenyl)amino]-9H-purin-9-yl}-5-ethynyltetrahydrofuran-3,4-diol] | 7.36 | >168
2 | C#C[C@H]1O[C@@H](n2cnc3c(Nc4ccc(F)cc4C)ncnc32)[C@H](O)[C@@H]1O [Example 36, (2R,3R,4S,5R)-5-Ethynyl-2-{6-[(4-fluoro-2-methylphenyl)amino]-9H-purin-9-yl}tetrahydrofuran-3,4-diol] | 7.15 | >1117
3 | C#C[C@H]1O[C@@H](n2cnc3c(NC4CCCCC4)ncnc32)[C@H](O)[C@@H]1O [Example 7, (2R,3R,4S,5R)-2-[6-(Cyclohexylamino)-9H-purin-9-yl]-5-ethynyltetrahydrofuran-3,4-diol] | 11.4 | >178
4 | C#C[C@H]1O[C@@H](n2cnc3c(NC4CCN(C(=O)OCC)CC4)ncnc32)[C@H](O)[C@@H]1O [Example 2, Ethyl 4-({9-[(2R,3R,4S,5R)-5-ethynyl-3,4-dihydroxytetrahydrofuran-2-yl]-9H-purin-6-yl}amino)piperidine-1-carboxylate] | 10 | >3580
5 | C#C[C@H]1O[C@@H](n2cnc3c(N[C@H]4CCO[C@H]4C)ncnc32)[C@H](O)[C@@H]1O [Example 14, (2R,3R,4S,5R)-5-Ethynyl-2-(6-{[(2S,3S)-2-methyltetrahydrofuran-3-yl]amino}-9H-purin-9-yl)tetrahydrofuran-3,4-diol] | 14.86 | >502
6 | (2R,3R,4S,5R)-2-[6-(cyclobutylamino)-9H-purin-9-yl]-5-ethynyltetrahydrofuran-3,4-diol [Example 5] | 3 | >196
7 | C#C[C@H]1O[C@@H](n2cnc3c(NC4CC4(C)C)ncnc32)[C@H](O)[C@@H]1O (stereo partly drawn) [Example 18, (2R,3R,4S,5R)-2-{6-[(2,2-Dimethylcyclopropyl)amino]-9H-purin-9-yl}-5-ethynyltetrahydrofuran-3,4-diol] | 6.81 | >3208

Reference: patent US20040162422A1, “Chemical compounds” (priority 2001, published 2004)
